Data reported in the PolyMetriX glass transition set.

| Structure (SMILES) | glass transition temperature [°C] |
| --- | --- |
| *C(=O)Nc1ccc(Oc2ccc(NC(=O)c3ccc4c(c3)C(=O)N(C3CCC(CC5CCC(N6C(=O)c7ccc(*)cc7C6=O)CC5)CC3)C4=O)cc2)cc1 (repeat unit) | 250.00 |
| *C(=O)Nc1ccc(Oc2ccc(NC(=O)c3ccc4c(c3)C(=O)N(c3ccc(Oc5ccc(C6(c7ccc(Oc8ccc(N9C(=O)c%10ccc(*)cc%10C9=O)cc8)cc7)NC(=O)c7ccccc76)cc5)cc3)C4=O)cc2)cc1 (repeat unit) | 325.00 |
| *C(=O)Nc1ccc(Oc2ccc(NC(=O)c3ccc4c(c3)C(=O)N(c3ccc(Oc5cccc6c(N7C(=O)c8ccc(*)cc8C7=O)cccc56)cc3)C4=O)cc2)cc1 (repeat unit) | 278.00 |
| *C(=O)Nc1ccc(Oc2ccc(NC(=O)c3ccc4c(c3)C(=O)N(c3cccc(P(=O)(c5ccccc5)c5cccc(N6C(=O)c7ccc(*)cc7C6=O)c5)c3)C4=O)cc2)cc1 (repeat unit) | 235.00 |
| *C(=O)Nc1ccc(Oc2ccc(Oc3ccc(NC(=O)c4ccc5c(c4)C(=O)N(c4ccc(Oc6ccc(C7(c8ccc(Oc9ccc(N%10C(=O)c%11ccc(*)cc%11C%10=O)cc9)cc8)NC(=O)c8ccccc87)cc6)cc4)C5=O)cc3)cc2)cc1 (repeat unit) | 300.00 |
| *C(=O)Nc1ccc(Oc2ccc(Oc3ccc(NC(=O)c4ccc5c(c4)C(=O)N(c4ccc(S(=O)(=O)c6ccc(N7C(=O)c8ccc(*)cc8C7=O)cc6)cc4)C5=O)cc3)cc2)cc1 (repeat unit) | 243.00 |
| *C(=O)Nc1ccc(Oc2ccc(S(=O)(=O)c3ccc(Oc4ccc(NC(=O)c5ccc6c(c5)C(=O)N(c5ccc(Oc7ccc(C8(c9ccc(Oc%10ccc(N%11C(=O)c%12ccc(*)cc%12C%11=O)cc%10)cc9)NC(=O)c9ccccc98)cc7)cc5)C6=O)cc4)cc3)cc2)cc1 (repeat unit) | 302.00 |
| *C(=O)Nc1ccc(Oc2cccc(NC(=O)c3ccc4c(c3)C(=O)N(c3ccc(Oc5ccc(N6C(=O)c7ccc(*)cc7C6=O)cc5)cc3)C4=O)c2)cc1 (repeat unit) | 236.00 |
| *C(=O)Nc1ccc(Oc2cccc(NC(=O)c3ccc4c(c3)C(=O)N(c3ccc(Oc5ccc6ccc(Oc7ccc(N8C(=O)c9ccc(*)cc9C8=O)cc7)cc6c5)cc3)C4=O)c2)cc1 (repeat unit) | 263.00 |
| *C(=O)Nc1ccc(Oc2cccc(NC(=O)c3ccc4c(c3)C(=O)N(c3ccc(Oc5cccc(N6C(=O)c7ccc(*)cc7C6=O)c5)cc3)C4=O)c2)cc1 (repeat unit) | 211.00 |
| *C(=O)Nc1ccc(Oc2cccc(Oc3ccc(NC(=O)c4ccc5c(c4)C(=O)N(c4ccc(Oc6ccc(C7(c8ccc(Oc9ccc(N%10C(=O)c%11ccc(*)cc%11C%10=O)cc9)cc8)NC(=O)c8ccccc87)cc6)cc4)C5=O)cc3)c2)cc1 (repeat unit) | 288.00 |
| *C(=O)Nc1ccc(Oc2cccc3c(NC(=O)c4ccc5c(c4)C(=O)N(c4ccc(Oc6cccc7c(N8C(=O)c9ccc(*)cc9C8=O)cccc67)cc4)C5=O)cccc23)cc1 (repeat unit) | 276.00 |
| *C(=O)Nc1ccc(Oc2ccccc2-c2ccccc2Oc2ccc(NC(=O)c3ccc4c(c3)C(=O)N(c3ccc(Oc5ccc(-c6ccc(Oc7ccc(N8C(=O)c9ccc(*)cc9C8=O)cc7)cc6)cc5)cc3)C4=O)cc2)cc1 (repeat unit) | 239.00 |
| *C(=O)c1ccc2c(c1)C(=O)N(c1ccc(Oc3ccc(C(=O)c4ccc(C(=O)c5ccc(Oc6ccc(N7C(=O)c8ccc(*)cc8C7=O)cc6)cc5)cc4)cc3)cc1)C2=O (repeat unit) | 233.00 |
| *Cc1ccc2oc(=O)c(C(=O)Nc3ccc(Oc4ccc(Oc5ccc(NC(=O)c6cc7cc(*)ccc7oc6=O)cc5)cc4)cc3)cc2c1 (repeat unit) | 290.00 |
| *Nc1ccc(Oc2ccc(Nc3ccc4c(c3)c3cc(*)ccc3n4CC(CC)CCCC)cc2)cc1 (repeat unit) | 220.00 |
| *Oc1ccc(C2(c3ccc(Oc4ccc(C(=O)c5ccc(C(=O)c6ccc(*)cc6)cc5)cc4)cc3)c3ccccc3-c3ccccc32)cc1 (repeat unit) | 243.00 |
| *Oc1ccc(NC(=C(C#N)C#N)c2cccc(C(Nc3ccc(Oc4ccc(NC(=O)c5ccc(C(=O)Nc6ccc(*)cc6)cc5)cc4)cc3)=C(C#N)C#N)c2)cc1 (repeat unit) | 274.00 |
| *Oc1ccc(NC(=O)c2ccc(Oc3ccc(C(=O)Nc4ccc(*)cc4)cc3)cc2)cc1 (repeat unit) | 274.00 |
| *Oc1ccc(Nc2ccc(/N=N/c3ccc(Nc4ccc(*)cc4)cc3)cc2)cc1 (repeat unit) | 169.00 |
| *Oc1ccc(Oc2ccc(C(=O)Nc3ccc(Oc4ccc(NC(=O)c5ccc(*)cc5)cc4)cc3)cc2)cc1-c1ccccc1 (repeat unit) | 219.00 |
| *Oc1ccc(Oc2ccc(C(=O)Nc3ccc(Oc4ccc(S(=O)(=O)c5ccc(Oc6ccc(NC(=O)c7ccc(*)cc7)cc6)cc5)cc4)cc3)cc2)cc1-c1ccccc1 (repeat unit) | 231.00 |

| Structure (SMILES) | glass transition temperature [°C] |
| --- | --- |
| *Oc1ccc(Oc2ccc(C(=O)c3ccc(C(=O)c4ccc(*)cc4)c4ccccc34)cc2)cc1 (repeat unit) | 200.03 |
| *Oc1ccc(Oc2ccc(C(=O)c3ccc(C(=O)c4ccc(*)cc4)cc3)cc2)cc1-c1ccc(Cl)c(C(F)(F)F)c1 (repeat unit) | 147.00 |
| *Oc1ccc(Oc2ccc(NC(=C(C#N)C#N)c3cccc(C(Nc4ccc(*)cc4)=C(C#N)C#N)c3)cc2)cc1 (repeat unit) | 228.00 |
| *Oc1ccc(Oc2ccc(NC(=O)c3ccc(Oc4ccc(Oc5ccc(C(=O)Nc6ccc(*)cc6)cc5)cc4)cc3)cc2)cc1 (repeat unit) | 236.00 |
| *Oc1ccc2ccc(Oc3ccc(C(=O)Nc4ccc(Oc5ccc(Oc6ccc(NC(=O)c7ccc(*)cc7)cc6)cc5)cc4)cc3)cc2c1 (repeat unit) | 191.00 |
| *Oc1ccc2ccc(Oc3ccc(C(=O)Nc4ccc(Oc5ccc(S(=O)(=O)c6ccc(Oc7ccc(NC(=O)c8ccc(*)cc8)cc7)cc6)cc5)cc4)cc3)cc2c1 (repeat unit) | 227.00 |
| *Oc1ccc2ccc(Oc3ccc(C(=O)Nc4cccc(Oc5ccc(NC(=O)c6ccc(*)cc6)cc5)c4)cc3)cc2c1 (repeat unit) | 164.00 |
| *Oc1cccc(NC(=O)c2ccc(C(=O)Nc3ccc(*)cc3)cc2)c1 (repeat unit) | 280.00 |
| *Oc1cccc2ccc(Oc3ccc(NC(=O)c4ccc(Oc5ccc(Oc6ccc(C(=O)Nc7ccc(*)cc7)cc6)cc5)cc4)cc3)cc12 (repeat unit) | 224.00 |
| *Oc1cccc2ccc(Oc3ccc(NC(=O)c4ccc(Oc5ccc(S(=O)(=O)c6ccc(Oc7ccc(C(=O)Nc8ccc(*)cc8)cc7)cc6)cc5)cc4)cc3)cc12 (repeat unit) | 218.00 |
| *Oc1cccc2ccc(Oc3ccc(NC(=O)c4ccc(Oc5cccc(Oc6ccc(C(=O)Nc7ccc(*)cc7)cc6)c5)cc4)cc3)cc12 (repeat unit) | 196.00 |
| *Oc1cccc2ccc(Oc3ccc(NC(=O)c4ccc(Oc5ccccc5Oc5ccc(C(=O)Nc6ccc(*)cc6)cc5)cc4)cc3)cc12 (repeat unit) | 180.00 |
| *c1ccc(-c2nc3cc(Oc4ccc(NC(=O)c5cc(C(=O)Nc6ccc(Oc7ccc8nc(-c9ccccc9)c(*)nc8c7)cc6)cc(N6C(=O)c7ccccc7C6=O)c5)cc4)ccc3nc2-c2ccccc2)cc1 (repeat unit) | 302.00 |
| *c1ccc(-c2nc3cc(Oc4ccc(NC(=O)c5cc(C(=O)Nc6ccc(Oc7ccc8nc(-c9ccccc9)c(-c9ccc(N%10C(=O)c%11ccc%12c%13c(ccc(c%11%13)C%10=O)C(=O)N(*)C%12=O)cc9)nc8c7)cc6)cc(N6C(=O)c7c(Cl)c(Cl)c(Cl)c(Cl)c7C6=O)c5)cc4)ccc3nc2-c2ccccc2)cc1 (repeat unit) | 345.00 |
| *c1ccc(-c2nc3cc(Oc4ccc(NC(=O)c5cc(C(=O)Nc6ccc(Oc7ccc8nc(-c9ccccc9)c(-c9ccc(N%10C(=O)c%11ccc%12c%13c(ccc(c%11%13)C%10=O)C(=O)N(*)C%12=O)cc9)nc8c7)cc6)cc(N6C(=O)c7ccccc7C6=O)c5)cc4)ccc3nc2-c2ccccc2)cc1 (repeat unit) | 345.00 |
| *c1ccc(C(=O)Nc2ccc(Oc3ccc(S(=O)(=O)c4ccc(Oc5ccc(NC(=O)c6ccc(N7C(=O)c8ccc(-c9ccc%10c(c9)C(=O)N(*)C%10=O)cc8C7=O)cc6)cc5)cc4)cc3)cc2)cc1 (repeat unit) | 258.00 |
| *c1ccc(Oc2ccc(-c3nc4cc(Oc5ccc(NC(=O)c6cc(C(=O)Nc7ccc(Oc8ccc9nc(-c%10ccc([N+](=O)[O-])cc%10)c(*)nc9c8)cc7)cc(N7C(=O)c8ccccc8C7=O)c6)cc5)ccc4nc3-c3ccc([N+](=O)[O-])cc3)cc2)cc1 (repeat unit) | 305.00 |
| *c1ccc(Oc2ccc(-c3nc4cc(Oc5ccc(NC(=O)c6ccc7c(c6)C(=O)N(c6ccc(C(c8ccc(N9C(=O)c%10ccc(C(=O)Nc%11ccc(Oc%12ccc%13nc(-c%14ccc([N+](=O)[O-])cc%14)c(*)nc%13c%12)cc%11)cc%10C9=O)cc8)(C(F)(F)F)C(F)(F)F)cc6)C7=O)cc5)ccc4nc3-c3ccc([N+](=O)[O-])cc3)cc2)cc1 (repeat unit) | 303.00 |
| *c1ccc(Oc2ccc(-c3nc4cc(Oc5ccc(NC(=O)c6ccc7c(c6)C(=O)N(c6ccc(C(c8ccc(N9C(=O)c%10ccc(C(=O)Nc%11ccc(Oc%12ccc%13nc(-c%14ccccc%14)c(*)nc%13c%12)cc%11)cc%10C9=O)cc8)(C(F)(F)F)C(F)(F)F)cc6)C7=O)cc5)ccc4nc3-c3ccccc3)cc2)cc1 (repeat unit) | 289.00 |
| *c1ccc2c(c1)C(=O)N(c1ccc(C(=O)Nc3ccc(Oc4ccc(Oc5ccc(NC(=O)c6ccc(N7C(=O)c8ccc(C(*)(C(F)(F)F)C(F)(F)F)cc8C7=O)cc6)cc5)cc4)cc3)cc1)C2=O (repeat unit) | 303.00 |
| *c1cccc(C(=O)Nc2ccc(Oc3ccc(NC(=O)c4cccc(N5C(=O)c6ccc(-c7cccc8c7C(=O)N(*)C8=O)cc6C5=O)c4)cc3)cc2)c1 (repeat unit) | 291.00 |
| *c1cccc(C(=O)Nc2ccc(Oc3ccc(Oc4ccc(Oc5ccc(NC(=O)c6cccc(N7C(=O)c8ccc(-c9cccc%10c9C(=O)N(*)C%10=O)cc8C7=O)c6)cc5)cc4)cc3)cc2)c1 (repeat unit) | 260.00 |
